The structures appear in SMILES notation. pIC50: −log10 of the molar value.

The first assay addresses T1, CETP (Homo sapiens, UniProt P11597).
T1 construct: made in house; host or cells: CHO cells (serum-free conditioned medium)
T1 sequence (P11597 18-493): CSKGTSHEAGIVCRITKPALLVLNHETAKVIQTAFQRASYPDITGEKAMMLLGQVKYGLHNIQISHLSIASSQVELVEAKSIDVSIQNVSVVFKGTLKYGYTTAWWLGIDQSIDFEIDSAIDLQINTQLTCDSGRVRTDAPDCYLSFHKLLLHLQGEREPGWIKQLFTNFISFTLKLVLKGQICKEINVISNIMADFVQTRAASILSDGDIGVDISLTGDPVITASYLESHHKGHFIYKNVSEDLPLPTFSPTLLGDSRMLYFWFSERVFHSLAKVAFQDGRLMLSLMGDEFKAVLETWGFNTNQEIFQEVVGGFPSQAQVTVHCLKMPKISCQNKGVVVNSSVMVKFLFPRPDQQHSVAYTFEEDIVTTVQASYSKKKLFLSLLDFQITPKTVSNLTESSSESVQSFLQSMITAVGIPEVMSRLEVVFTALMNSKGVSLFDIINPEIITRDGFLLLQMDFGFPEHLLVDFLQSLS
Kind of assay: CETP activity in vitro: transfer of [3H]CE from HDL donor to LDL acceptor particles. It counts as biochemical. The following applies: @ 100 μm; footnotes A and B of Table 6. The gist of the method: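 Transfer of radiolabelled cholesteryl ester from HDL to LDL was followed over 2 h at 37 °C in Tris buffer (pH 7.4, 150 mM NaCl, 2 mM EDTA, 1% BSA), using CETP secreted by transfected CHO cells. Radioactivity in dextran sulfate/Mg-precipitated LDL was measured by scintillation counting, giving IC50.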
Regarding `COC(=O)c1c(C(F)F)nc(C(F)(F)F)c(CSc2ccc(NC(C)=O)cc2)c1CC(C)C` [Compound 204, Methyl 5-[(4-(Acetylamino)phenyl)thiomethyl]-2-(difluoromethyl)-4-(2-methylpropyl)-6-(trifluoromethyl)-3-pyridinecarboxylate], the CE transferred result was “^B80% CE transferred @ 100 μm”.

Staying with this assay, now noted: IC50, Table 7, compounds of formula T-7.
For `COC(=O)c1c(C(F)F)nc(C(F)(F)F)c(SCc2cccc(Br)c2)c1CC(C)C` [Compound 229], the pIC50 was 4.30. On the same count and under the same terms, as for `COC(=O)c1c(C(F)F)nc(C(F)(F)F)c(SCc2cccc(OC)c2)c1CC(C)C` [Compound 231], the figure is 4.30.

The assay is the same for the next values; noted with them: Table 6, compounds of formula T-6; read-out: IC50.
For the molecule `COC(=O)c1c(C(F)F)nc(C(F)(F)F)c(CSc2ccccc2Cl)c1CC(C)C` [Compound 200, Methyl 5-[(2-Chlorophenyl)thiomethyl]-2-(difluoromethyl)-4-(2-methylpropyl)-6-(trifluoromethyl)-3-pyridinecarboxylate], the pIC50 was 4.40. The same measure, in the same setting: next, `COC(=O)c1c(C(F)F)nc(C(F)(F)F)c(CSc2c(Cl)cccc2Cl)c1CC(C)C` [Compound 201, Methyl 5-[(2,6-Dichlorophenyl)thiomethyl]-2-(difluoromethyl)-4-(2-methylpropyl)-6-(trifluoromethyl)-3-pyridinecarboxylate]: 4.52. Turning to `COC(=O)c1c(C(F)F)nc(C(F)(F)F)c(CSc2cccc3cccnc23)c1CC(C)C` [Compound 202, Methyl 5-[(Quinolin-8-yl)thiomethyl]-2-(difluoromethyl)-4-(2-methylpropyl)-6-(trifluoromethyl)-3-pyridinecarboxylate], the pIC50 is 4.10.

As for `COC(=O)c1c(C(F)F)nc(C(F)(F)F)c(CSc2ncccn2)c1CC(C)C` [Compound 203, Methyl 5-[(Pyrimidin-2-yl)thiomethyl]-2-(difluoromethyl)-4-(2-methylpropyl)-6-(trifluoromethyl)-3-pyridinecarboxylate], the pIC50 is 4.15.

With `COC(=O)c1c(C(F)F)nc(C(F)(F)F)c(CSc2ccc(NC(C)=O)cc2)c1CC(C)C` [Compound 204, Methyl 5-[(4-(Acetylamino)phenyl)thiomethyl]-2-(difluoromethyl)-4-(2-methylpropyl)-6-(trifluoromethyl)-3-pyridinecarboxylate], the negative logarithm of the IC50 (pIC50) was less than 4.00. Same read-out and setting: as for `COC(=O)c1c(C(F)F)nc(C(F)(F)F)c(CSc2nc3ccccc3o2)c1CC(C)C` [Compound 205, Methyl 5-[(Benzoxazol-2-yl)thiomethyl]-2-(difluoromethyl)-4-(2-methylpropyl)-6-(trifluoromethyl)-3-pyridinecarboxylate], the figure is 4.70; as for `COC(=O)c1c(C(F)F)nc(C(F)(F)F)c(CSc2ccc(Br)cc2OC(F)(F)F)c1CC(C)C` [Compound 206, Methyl 5-[(4-Bromo-2-(trifluoromethoxy)phenyl)thiomethyl]-2-(difluoromethyl)-4-(2-methylpropyl)-6-(trifluoromethyl)-3-pyridinecarboxylate], 4.30; as for `COC(=O)c1c(C(F)F)nc(C(F)(F)F)c(CSc2ccccc2OC)c1CC(C)C` [Compound 208, Methyl 5-[(2-Methoxyphenyl)thiomethyl]-2-(difluoromethyl)-4-(2-methylpropyl)-6-(trifluoromethyl)-3-pyridinecarboxylate], 4.22. Same read-out and setting: as for `COC(=O)c1c(C(F)F)nc(C(F)(F)F)c(CSc2nc3ccc(C)cc3[nH]2)c1CC(C)C` [Compound 209, Methyl 5-[(5-Methylbenzimidazol-2-yl)thiomethyl]-2-(difluoromethyl)-4-(2-methylpropyl)-6-(trifluoromethyl)-3-pyridinecarboxylate], the figure is 5.00; as for `COC(=O)c1c(C(F)F)nc(C(F)(F)F)c(CSc2nc3ccccc3[nH]2)c1CC(C)C` [Compound 210, Methyl 5-[(Benzimidazol-2-yl)thiomethyl]-2-(difluoromethyl)-4-(2-methylpropyl)-6-(trifluoromethyl)-3-pyridinecarboxylate], 4.70; as for `COC(=O)c1c(C(F)F)nc(C(F)(F)F)c(CSc2cccc(OC)c2)c1CC(C)C` [Compound 211, Methyl 5-[(3-Methoxyphenyl)thiomethyl]-2-(difluoromethyl)-4-(2-methylpropyl)-6-(trifluoromethyl)-3-pyridinecarboxylate], 4.35. As to `COC(=O)c1c(C(F)F)nc(C(F)(F)F)c(CSc2nc3ccccc3s2)c1CC(C)C` [Compound 212, Methyl 5-[(Benzothiazol-2-yl)thiomethyl]-2-(difluoromethyl)-4-(2-methylpropyl)-6-(trifluoromethyl)-3-pyridinecarboxylate], the pIC50 is 4.82. Same read-out and setting: next, `COC(=O)c1c(C(F)F)nc(C(F)(F)F)c(CSc2cccc(Cl)c2)c1CC(C)C` [Compound 213, Methyl 5-[(3-Chlorophenyl)thiomethyl]-2-(difluoromethyl)-4-(2-methylpropyl)-6-(trifluoromethyl)-3-pyridinecarboxylate]: 4.82; `COC(=O)c1c(C(F)F)nc(C(F)(F)F)c(CSc2ccccn2)c1CC(C)C` [Compound 216, Methyl 5-[(2-Pyridyl)thiomethyl]-2-(difluoromethyl)-4-(2-methylpropyl)-6-(trifluoromethyl)-3-pyridinecarboxylate]: 4.40. On the same count and under the same terms, as for `COC(=O)c1c(C(F)F)nc(C(F)(F)F)c(CSc2ccccc2Br)c1CC(C)C` [Compound 217, Methyl 5-[(2-bromophenyl)thiomethyl]-2-(difluoromethyl)-4-(2-methylpropyl)-6-(trifluoromethyl)-3-pyridinecarboxylate], the figure is 4.30.

The same assay, now with this note: Table 7, compounds of formula T-7; read-out: IC50.
Turning to `COC(=O)c1c(C(F)F)nc(C(F)(F)F)c(SCc2ccccc2)c1CC(C)C` [Compound 219], the pIC50 was 4.60. The same measure, in the same setting: next, `COC(=O)c1c(C(F)F)nc(C(F)(F)F)c(SCc2ccc(Cl)cc2)c1CC(C)C` [Compound 220]: 4.70; `COC(=O)c1c(C(F)F)nc(C(F)(F)F)c(SCc2ccc(OC)cc2)c1CC(C)C` [Compound 221]: 4.40.

In the case of `COC(=O)c1c(C(F)F)nc(C(F)(F)F)c(SCc2ccc(OCc3ccccc3)c(OCc3ccccc3)c2)c1CC(C)C` [Compound 222], the pIC50 was 4.82.

Take `COC(=O)c1c(C(F)F)nc(C(F)(F)F)c(SCc2ccccc2[N+](=O)[O-])c1CC(C)C` [Compound 223]: the pIC50 was 4.30. The same measure, in the same setting: as for `COC(=O)c1c(C(F)F)nc(C(F)(F)F)c(SCc2ccc(OCc3ccccc3)cc2)c1CC(C)C` [Compound 224], the figure is 4.60; as for `COC(=O)c1c(C(F)F)nc(C(F)(F)F)c(SCc2ccc(-c3ccccc3)cc2)c1CC(C)C` [Compound 225], 5.00; as for `COC(=O)c1c(C(F)F)nc(C(F)(F)F)c(SCc2ccc3c(c2Cl)OCO3)c1CC(C)C` [Compound 226, Methyl 5-[(2-Chloro-3,4-methylenedioxyphenyl)methylthio]-2-(difluoromethyl)-4-(2-methylpropyl)-6-(trifluoromethyl)-3-pyridinecarboxylate], 4.22. The same measure, in the same setting: as for `COC(=O)c1c(C(F)F)nc(C(F)(F)F)c(SCc2c3ccccc3cc3ccccc23)c1CC(C)C` [Compound 227], the figure is 4.52. Same read-out and setting: next, `COC(=O)c1c(C(F)F)nc(C(F)(F)F)c(SCc2cccc([N+](=O)[O-])c2)c1CC(C)C` [Compound 230]: 4.30. With `COC(=O)c1c(C(F)F)nc(C(F)(F)F)c(SCc2ccccn2)c1CC(C)C` [Compound 233, Methyl 5-[(2-pyridyl)methylthio]-2-(difluoromethyl)-4-(2-methylpropyl)-6-(trifluoromethyl)-3-pyridinecarboxylate], the pIC50 was 4.22.

With `COC(=O)c1c(C(F)F)nc(C(F)(F)F)c(SCc2ccc(C(F)(F)F)cc2C(F)(F)F)c1CC(C)C` [Compound 234], the pIC50 was 4.70. The same measure, in the same setting: as for `COC(=O)c1c(C(F)F)nc(C(F)(F)F)c(SCc2ccc(OC(F)(F)F)cc2)c1CC(C)C` [Compound 235], the figure is 4.52. The same measure, in the same setting: next, `COC(=O)c1c(C(F)F)nc(C(F)(F)F)c(SCc2ccc(Cl)cc2Cl)c1CC(C)C` [Compound 237]: 4.52. As for `COC(=O)c1c(C(F)F)nc(C(F)(F)F)c(SCc2ccccc2Br)c1CC(C)C` [Compound 239], the pIC50 is 4.35. For the molecule `COC(=O)c1c(C(F)F)nc(C(F)(F)F)c(SCc2ccc3ccccc3n2)c1CC(C)C` [Compound 241, Methyl 5-[(2-quinolinyl)methylthio]-2-(difluoromethyl)-4-(2-methylpropyl)-6-(trifluoromethyl)-3-pyridinecarboxylate], the pIC50 was 4.30. Still for that read-out and setting: next, `COC(=O)c1c(C(F)F)nc(C(F)(F)F)c(SCc2cc(Cl)cc(Cl)c2)c1CC(C)C` [Compound 243]: 4.30; `COC(=O)c1c(C(F)F)nc(C(F)(F)F)c(SCc2c(F)c(F)c(F)c(F)c2F)c1CC(C)C` [Compound 244]: 4.30. On the same count and under the same terms, as for `COC(=O)c1c(C(F)F)nc(C(F)(F)F)c(SCc2ccc3c(c2)C(C)(C)CCC3(C)C)c1CC(C)C` [Compound 245, Methyl 5-[(1,2,3,4-tetrahydro-1,1,4,4-tetramethyl-6-naphthyl)methylthio]-2-(difluoromethyl)-4-(2-methyl-propyl)-6-(trifluoromethyl)-3-pyridinecarboxylate], the figure is 4.52.

The pIC50 is −log10 of the IC50, conventionally taken in molar units.

The values above are taken from patent US6794396B2, “Substituted pyridines useful for inhibiting cholesteryl ester transfer protein activity” (Pharmacia Corporation, priority 1998, dated 2004).
